Assay results: US20250346575A1, “ISOINDOLINONE DERIVATIVE HAVING GLUTARIMIDE MOTHER NUCLEUS, AND USE THEREOF” (KOREA RESEARCH INSTITUTE OF CHEMICAL TECHNOLOGY, priority 2021, published 2025)

How the values were obtained:
Cancer cells (KG-1) = assay: Cytotoxicity assay, WST-1, KG-1; type: cell-based; details: for IC50: Homo sapiens, KG-1 cells, 72 hours, WST-1; for activity (in words): monocyclic heteroaryl R1 and aryl R2 compared to bicyclic heteroaryl R1 (Compounds 8, 9, and 26)
Protocol: To evaluate the effect of the compounds of the present disclosure on cancer cells, a cytotoxicity assay was conducted as follows.
Cancer cells (KG-1) were seeded at a concentration of 10,000 cells per well into a 96-well plate. Then, the cells were treated with predetermined concentrations of compounds of the Examples and comparative substances (comparative compounds 1, 2, 3). After 72 hours, the cells were incubated with WST-1 reagent for one hour. Then, absorbance was measured at 450 nm using a spectramax spectrophotometer to assess the degree of cancer cell apoptosis. The IC50 (μM) values were calculated using the measured values with the GraphPad Prism program and the measurements are summarized in Table 1.

[1] = system: NCI-H1155 (lung cancer cells); assay: CytoX cell viability assay, NCI-H1155; type: cell-based; details: for viability at 0.01 µM / viability at 0.5 µM: Homo sapiens, NCI-H1155, 72 hours; for viability at 0.01 µM: 10 nM; for viability at 0.5 µM: 500 nM
Protocol: The survival rate of NCI-H1155 (lung cancer cells) was measured using the CytoX cell viability assay kit (LPS solution, #CYT3000). NCI-H1155 cells were inoculated into 12-well plates. Afterwards, the cells were treated with each compound of the present disclosure and a comparative substance (CC-90009) at concentrations of 10 nM and 500 nM for 72 hours. Then, CytoX solution was added to the cells, incubated for one hour, and the absorbance of each well was read at 450 nm using a microplate reader to calculate the % viability, and the measurements are summarized in Table 2

SMILES	IC50 (Cancer cells (KG-1))	also measured
O=C1CCC(N2Cc3cc(CNC(=O)c4cc(-c5ccc(Cl)cc5)on4)ccc3C2=O)C(=O)N1 (stereo not drawn) [Compound 11, 5-(4-Chlorophenyl)-N-((2-(2,6-dioxopiperidin-3-yl)-1-oxoisoindolin-5-yl)methyl)isoxazole-3-carboxamide]	0.0001 to 0.01 µM	–
O=C1CCC(N2Cc3cc(CNC(=O)C4CCN(c5ccccc5)C4=O)ccc3C2=O)C(=O)N1 (stereo not drawn) [Compound 55, N-((2-(2,6-Dioxopiperidin-3-yl)-1-oxoisoindolin-5-yl)methyl)-2-oxo-1-phenylpyrrolidine-3-carboxamide]	1 to 10 µM	–
O=C1CCC(N2Cc3cc(CNC(=O)c4n[nH]c(-c5cccc(Cl)c5)c4Br)ccc3C2=O)C(=O)N1 (stereo not drawn) [Compound 27, 4-Bromo-3-(3-chlorophenyl)-N-((2-(2,6-dioxopiperidin-3-yl)-1-oxoisoindolin-5-yl)methyl)-1H-pyrazole-5-carboxamide]	0.0001 to 0.01 µM	–
O=C1CCC(N2Cc3cc(CNC(=O)c4cc5ccccc5cn4)ccc3C2=O)C(=O)N1 (stereo not drawn) [Comparative Compound 1, N-((2-(2,6-Dioxopiperidin-3-yl)-1-oxoisoindolin-5-yl)methyl)isoquinoline-3-carboxamide, reference compound]	10 to 50 µM	–
O=C1CCC(N2Cc3cc(CNC(=O)c4ccc5cc(Cl)ccc5n4)ccc3C2=O)C(=O)N1 (stereo not drawn) [Comparative Compound 3, 6-Chloro-N-((2-(2,6-dioxopiperidin-3-yl)-1-oxoisoindolin-5-yl)methyl)quinoline-2-carboxamide, reference compound]	10 to 50 µM	–
O=C1CCC(N2Cc3cc(CNC(=O)c4cc(-c5ccc(Cl)cc5)n[nH]4)ccc3C2=O)C(=O)N1 (stereo not drawn) [Compound 2, 3-(4-Chlorophenyl)-N-((2-(2,6-dioxopiperidin-3-yl)-1-oxoisoindolin-5-yl)methyl)-1H-pyrazole-5-carboxamide]	0.0001 to 0.01 µM	–
O=C1CCC(N2Cc3cc(CNC(=O)c4nc5cc(Cl)c(Cl)cc5[nH]4)ccc3C2=O)C(=O)N1 (stereo not drawn) [Compound 16, 5,6-dichloro-N-((2-(2,6-dioxopiperidin-3-yl)-1-oxoisoindolin-5-yl)methyl)-1H-benzo[d]imidazole-2-carboxamide]	0.01 to 1 µM	–
O=C1CCC(N2Cc3cc(CNC(=O)c4nc5cc(Cl)ccc5[nH]4)ccc3C2=O)C(=O)N1 (stereo not drawn) [Compound 3, 5-Chloro-N-((2-(2,6-dioxopiperidin-3-yl)-1-oxoisoindolin-5-yl)methyl)-1H-benzo[d]imidazole-2-carboxamide]	–	cytotoxic activity against KG-1 and NCI-H1155 cancer cells (in words) (Cancer cells (KG-1); R1 bicyclic heteroaryl compared to monocyclic aryl (comparative substance) or heteroaryl (Compounds 37 and 38)): more potent cytotoxic activity
O=C1CCC(N2Cc3cc(CNC(=O)c4c[nH]c5cc(Cl)ccc45)ccc3C2=O)C(=O)N1 (stereo not drawn) [Compound 6, 6-chloro-N-((2-(2,6-dioxopiperidin-3-yl)-1-oxoisoindolin-5-yl)methyl)-1H-indole-3-carboxamide]	0.01 to 1 µM	–
O=C1CCC(N2Cc3cc(CNC(=O)c4cc(-c5ccc(Cl)cc5Cl)[nH]n4)ccc3C2=O)C(=O)N1 (stereo not drawn) [Compound 25, 5-(2,4-Dichlorophenyl)-N-((2-(2,6-dioxopiperidin-3-yl)-1-oxoisoindolin-5-yl)methyl)-1H-pyrazole-3-carboxamide]	0.0001 to 0.01 µM	–
O=C1CCC(N2Cc3cc(CNC(=O)c4cc(-c5cccc(Cl)c5)n[nH]4)ccc3C2=O)C(=O)N1 (stereo not drawn) [Compound 5, 3-(3-Chlorophenyl)-N-((2-(2,6-dioxopiperidin-3-yl)-1-oxoisoindolin-5-yl)methyl)-1H-pyrazole-5-carboxamide]	0.0001 to 0.01 µM	–
O=C1CCC(N2Cc3cc(CNC(=O)C4(c5ccc(Cl)cc5)CCCC4)ccc3C2=O)C(=O)N1 (stereo not drawn) [Compound 53, 1-(4-Chlorophenyl)-N-((2-(2,6-dioxopiperidin-3-yl)-1-oxoisoindolin-5-yl)methyl)cyclopentane-1-carboxamide]	10 to 50 µM	–
O=C1CCC(N2Cc3cc(CNC(=O)c4n[nH]c5cc(Cl)c(Cl)cc45)ccc3C2=O)C(=O)N1 (stereo not drawn) [Compound 4, 5,6-Dichloro-N-((2-(2,6-dioxopiperidin-3-yl)-1-oxoisoindolin-5-yl)methyl)-1H-indazole-3-carboxamide]	0.0001 to 0.01 µM	–
O=C1CCC(N2Cc3cc(CNC(=O)c4cnc5ccccc5n4)ccc3C2=O)C(=O)N1 (stereo not drawn) [Comparative Compound 2, N-((2-(2,6-Dioxopiperidin-3-yl)-1-oxoisoindolin-5-yl)methyl)quinoxaline-2-carboxamide, reference compound]	10 to 50 µM	–
Cn1cc(-c2ccccc2)cc1C(=O)NCc1ccc2c(c1)CN(C1CCC(=O)NC1=O)C2=O (stereo not drawn) [Compound 39, N-((2-(2,6-Dioxopiperidin-3-yl)-1-oxoisoindolin-5-yl)methyl)-1-methyl-4-phenyl-1H-pyrrole-2-carboxamide]	0.0001 to 0.01 µM	activity (in words) (Cancer cells (KG-1)): significantly more potent activity
Cc1cnc(C(=O)NCc2ccc3c(c2)CN(C2CCC(=O)NC2=O)C3=O)cc1-c1ccccc1 (stereo not drawn) [Compound 45, N-((2-(2,6-Dioxopiperidin-3-yl)-1-oxoisoindolin-5-yl)methyl)-5-methyl-4-phenylpicolinamide]	0.0001 to 0.01 µM	–
O=C1CCC(N2Cc3cc(CNC(=O)c4cccc(-c5ccccc5)c4)ccc3C2=O)C(=O)N1 (stereo not drawn) [Compound 30, N-((2-(2,6-Dioxopiperidin-3-yl)-1-oxoisoindolin-5-yl)methyl)-[1,1′-biphenyl]-3-carboxamide]	10 to 50 µM	–
O=C1CCC(N2Cc3cc(CNC(=O)c4n[nH]c5cc(Cl)ccc45)ccc3C2=O)C(=O)N1 (stereo not drawn) [Compound 1, 6-Chloro-N-((2-(2,6-dioxopiperidin-3-yl)-1-oxoisoindolin-5-yl)methyl)-1H-indazole-3-carboxamide]	0.0001 to 0.01 µM	–
O=C1CCC(N2Cc3cc(CNC(=O)c4nc5cc(Cl)ccc5s4)ccc3C2=O)C(=O)N1 (stereo not drawn) [Compound 44, 5-chloro-N-((2-(2,6-dioxopiperidin-3-yl)-1-oxoisoindolin-5-yl)methyl)benzo[d]thiazole-2-carboxamide]	0.01 to 1 µM	–
O=C1CCC(N2Cc3cc(CNC(=O)c4ncc(-c5cccc(Cl)c5)cn4)ccc3C2=O)C(=O)N1 (stereo not drawn) [Compound 20, 5-(3-Chlorophenyl)-N-((2-(2,6-dioxopiperidin-3-yl)-1-oxoisoindolin-5-yl)methyl)pyrimidine-2-carboxamide]	0.0001 to 0.01 µM	–
O=C1CCC(N2Cc3cc(CNC(=O)c4ccccc4)ccc3C2=O)C(=O)N1 (stereo not drawn) [Comparative substance, reference compound]	10 to 50 µM	–
Cc1c(C(=O)NCc2ccc3c(c2)CN(C2CCC(=O)NC2=O)C3=O)n[nH]c1-c1ccccc1 (stereo not drawn) [Compound 17, N-((2-(2,6-Dioxopiperidin-3-yl)-1-oxoisoindolin-5-yl)methyl)-4-methyl-5-phenyl-1H-pyrazole-3-carboxamide]	0.0001 to 0.01 µM	activity (in words) (Cancer cells (KG-1)): significantly more potent activity
Cc1c(C(=O)NCc2ccc3c(c2)CN(C2CCC(=O)NC2=O)C3=O)nn(CC(C)C)c1-c1cccc(Cl)c1 (stereo not drawn) [Compound 41, 5-(3-Chlorophenyl)-N-((2-(2,6-dioxopiperidin-3-yl)-1-oxoisoindolin-5-yl)methyl)-1-isobutyl-4-methyl-1H-pyrazole-3-carboxamide]	0.0001 to 0.01 µM	–
O=C1CCC(N2Cc3cc(CNC(=O)c4cc(-c5cccc(Cl)c5)c[nH]4)ccc3C2=O)C(=O)N1 (stereo not drawn) [Compound 14, 4-(3-Chlorophenyl)-N-((2-(2,6-dioxopiperidin-3-yl)-1-oxoisoindolin-5-yl)methyl)-1H-pyrrole-2-carboxamide]	0.0001 to 0.01 µM	–
Cc1ccc(-c2cc(C(=O)NCc3ccc4c(c3)CN(C3CCC(=O)NC3=O)C4=O)n[nH]2)c(C)c1 (stereo not drawn) [Compound 29, 5-(2,4-Dimethylphenyl)-N-((2-(2,6-dioxopiperidin-3-yl)-1-oxoisoindolin-5-yl)methyl)-1H-pyrazole-3-carboxamide]	0.0001 to 0.01 µM	–
O=C1CCC(N2Cc3cc(CNC(=O)c4cc5ccccc5s4)ccc3C2=O)C(=O)N1 (stereo not drawn) [Compound 58, N-((2-(2,6-Dioxopiperidin-3-yl)-1-oxoisoindolin-5-yl)methyl)benzo[b]thiophene-2-carboxamide]	–	viability at 0.01 µM [1]: 4.31%; viability at 0.5 µM [1]: 2.96%
O=C1CCC(N2Cc3cc(CNC(=O)c4cc5cccc(C(F)(F)F)c5s4)ccc3C2=O)C(=O)N1 (stereo not drawn) [Compound 71, N-((2-(2,6-Dioxopiperidin-3-yl)-1-oxoisoindolin-5-yl)methyl)-7-(trifluoromethyl)benzo[b]thiophene-2-carboxamide]	–	viability at 0.01 µM [1]: 24.2%; viability at 0.5 µM [1]: 24.4%
Cc1c(C(=O)NCc2ccc3c(c2)CN(C2CCC(=O)NC2=O)C3=O)nn(CC(C)C)c1-c1ccc(Cl)cc1 (stereo not drawn) [Compound 62, 5-(4-Chlorophenyl)-N-((2-(2,6-dioxopiperidin-3-yl)-1-oxoisoindolin-5-yl)methyl)-1-isobutyl-4-methyl-1H-pyrazole-3-carboxamide]	–	viability at 0.01 µM [1]: 18.9%; viability at 0.5 µM [1]: 9.56%
O=C1CCC(N2Cc3cc(CNC(=O)c4cnnc5ccccc45)ccc3C2=O)C(=O)N1 (stereo not drawn) [Compound 61, N-((2-(2,6-Dioxopiperidin-3-yl)-1-oxoisoindolin-5-yl)methyl)cinnoline-4-carboxamide]	–	cytotoxic activity against cancer cells, H1155 cells (in words) ([1]; (6+6) bicyclic heteroaryl compared to (6+5) bicyclic heteroaryl (Compounds 56-58 and 62-70)): less cytotoxic activity; viability at 0.01 µM [1]: 96.8%; viability at 0.5 µM [1]: 87.2%
